Here are results for 15 molecules from US10131663B2, “Chemical compounds” (AstraZeneca AB, priority 2016, dated 2018).

One series concerns the target hERG potassium channel (Homo sapiens (Human), UniProt Q12809). In words: hERG binding assay (automated patch clamp, CHO cells). It counts as cell-based. As to conditions: CHO cell line, Nanion Syncropatch 384PE. A digest of the protocol: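 CHO cells on automated patch clamp; compounds tested in quadruplicate. Currents evoked every 15 s from −80 mV holding by a 500 ms step to 60 mV then 500 ms to −40 mV.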
(In general: The hERG channel carries a current that helps repolarise heart muscle cells.)

Series [1] can be described thus: Human hepatocyte assay (metabolic stability). It counts as in vitro ADME. The note with it: human hepatocytes. How it is done:
The metabolic stability of compounds in human hepatocytes was assessed using the following protocol: • 1. Prepare 10 mM stock solutions of compound and control compounds in appropriate solvent (DMSO). Place incubation medium (L-15 Medium) in a 37° C. water bath, and allow warming for at least 15 minutes prior to use. • 2. Add 80 μL of acetonitrile to each well of the 96-well deep well plate (quenching plate). • 3. In a new 96-well plate, dilute the 10 mM test compounds and the control compounds to 100 μM by combining 198 μL of acetonitrile and 2 μL of 10 mM stock. • 4. Remove a vial of cryopreserved (less than −150° C.) human hepatocytes (LiverPool™ 10 Donor Human hepatocytes obtained from Celsis IVT. Chicago, Ill. (Product No. S01205)) from storage, ensuring that vials remain at cryogenic temperatures until thawing process ensues. As quickly as possible, thaw the cells by placing the vial in a 37° C. water bath and gently shaking the vials. Vials should remain in water bath until all ice crystals have dissolved and are no longer visible. After thawing is complete, spray vial with 70% ethanol, transfer the vial to a bio-safety cabinet. • 5. Open the vial and pour the contents into the 50 mL conical tube containing thawing medium. Place the 50 mL conical tube into a centrifuge and spin at 100 g for 10 minutes. […] Using Cellometer® Vision, count cells and determine the viable cell density. Cells with poor viability (<80% viability) are not acceptable for use. […] Transfer 247.5 μL of hepatocytes into each well of a 96-well cell culture plate. Place the plate on Eppendorf Thermomixer Comfort plate shaker to allow the hepatocytes to warm for 10 minutes. • 8. Add 2.5 μL of 100 μM test compound or control compounds into an incubation well containing cells, mix to achieve a homogenous suspension at 0.5 min, which when achieved, will define the 0.5 min time point. At the 0.5 min time, transfer 20 μL of incubated mixture to wells in a “Quenching plate” followed by vortexing. • 9. Incubate the plate at 37° C. at 900 rpm on an Eppendorf Thermomixer Comfort plate shaker. […] Centrifuge the quenching plates for 20 minutes at 4,000 rpm. 4 different compounds are pooled into one cassette and used for LC/MS/MS analysis.
All calculations were carried out using Microsoft Excel. Peak areas were determined from extracted ion chromatograms. In vitro intrinsic clearance (in vitro Clint, in […]) of parent compound was determined by regression analysis of the Ln percent parent disappearance vs. time curve.
V=incubation volume (0.25 mL);
N=number of hepatocytes per well (0.25×10^6 cells).

Series [2] in a line: Human Caco-2 passive permeability A to B Papp. It is filed as in vitro ADME. The note with it: apical pH 6.5, basolateral pH 7.4, efflux inhibitor cocktail. Here is the method:
An automated assay was used to determine the passive permeability of compounds in Caco-2 cell monolayers carried out over 2 hours with an apical pH of 6.5 and basolateral pH of 7.4. The Caco-2 AB inhibition assay is carried out with chemical inhibition of the three major efflux transporters ABCB1 (P-gp), ABCG2 (BCRP) and ABCC2 (MRP2) in Caco-2 cells. Incubation of both apical and basolateral is carried out with a cocktail of inhibitors (50 μM quinidine, 20 μM sulfasalazine and 100 μM benzbromarone). Samples were analyzed through LC/MS/MS to estimate the apparent permeability coefficients (Papp) of compounds across Caco-2 cell monolayers and results are quoted in units of ×10^−6 cm/s.

Chain of hERG potassium channel (Q12809 whole entry): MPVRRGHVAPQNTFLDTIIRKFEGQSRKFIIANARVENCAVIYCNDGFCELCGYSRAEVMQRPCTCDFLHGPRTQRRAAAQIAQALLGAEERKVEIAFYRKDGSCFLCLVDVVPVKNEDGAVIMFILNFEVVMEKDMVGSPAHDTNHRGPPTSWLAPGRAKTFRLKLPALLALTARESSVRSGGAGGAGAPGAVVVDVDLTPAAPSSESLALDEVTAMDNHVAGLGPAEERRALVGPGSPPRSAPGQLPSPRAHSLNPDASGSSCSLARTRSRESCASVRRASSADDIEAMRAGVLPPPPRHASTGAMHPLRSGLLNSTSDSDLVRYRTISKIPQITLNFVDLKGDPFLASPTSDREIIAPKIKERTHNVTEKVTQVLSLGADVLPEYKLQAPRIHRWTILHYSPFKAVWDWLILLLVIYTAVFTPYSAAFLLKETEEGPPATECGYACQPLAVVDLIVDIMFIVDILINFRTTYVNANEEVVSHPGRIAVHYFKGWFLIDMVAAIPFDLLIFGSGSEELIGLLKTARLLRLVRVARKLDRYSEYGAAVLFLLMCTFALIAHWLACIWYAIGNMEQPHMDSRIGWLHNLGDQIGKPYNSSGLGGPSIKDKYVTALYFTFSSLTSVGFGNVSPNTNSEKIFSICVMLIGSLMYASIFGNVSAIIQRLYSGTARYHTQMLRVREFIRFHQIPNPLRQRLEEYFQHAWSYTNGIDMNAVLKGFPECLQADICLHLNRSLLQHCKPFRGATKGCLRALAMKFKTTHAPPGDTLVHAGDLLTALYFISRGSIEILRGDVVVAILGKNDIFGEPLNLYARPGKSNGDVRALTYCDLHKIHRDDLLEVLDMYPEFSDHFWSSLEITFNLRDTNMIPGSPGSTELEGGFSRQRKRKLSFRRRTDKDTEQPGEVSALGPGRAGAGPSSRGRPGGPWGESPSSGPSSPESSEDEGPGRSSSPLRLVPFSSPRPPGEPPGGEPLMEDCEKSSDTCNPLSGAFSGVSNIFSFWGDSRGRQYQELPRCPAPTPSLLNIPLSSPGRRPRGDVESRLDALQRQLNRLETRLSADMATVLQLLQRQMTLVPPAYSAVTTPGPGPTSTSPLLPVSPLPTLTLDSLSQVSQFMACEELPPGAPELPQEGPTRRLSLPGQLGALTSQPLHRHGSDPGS

A word on the IC50: it is the point on the concentration scale where inhibition reaches its midpoint. The low end stands for greater potency, the high end for weaker potency. Turning to `C[C@@H]1Cc2c(ccc3[nH]nc(F)c23)[C@@H](c2ncc(NC3CN(CCCF)C3)cc2F)N1CC(F)(F)F` [Example 33, 5-Fluoro-6-((6S,8R)-1-fluoro-8-methyl-7-(2,2,2-trifluoroethyl)-6,7,8,9-tetrahydro-3H-pyrazolo[4,3-f]isoquinolin-6-yl)-N-(1-(3-fluoropropyl)azetidin-3-yl)pyridin-3-amine], on hERG potassium channel, the IC50 stood at 14 µM.
`C[C@@H]1Cc2c(ccc3[nH]ncc23)[C@@H](c2ccc(NC3CN(CCCF)C3)cc2)N1CC(F)(F)F` [Example 27, 1-(3-Fluoropropyl)-N-(4-((6R,8R)-8-methyl-7-(2,2,2-trifluoroethyl)-6,7,8,9-tetrahydro-3H-pyrazolo[4,3-f]isoquinolin-6-yl)phenyl)azetidin-3-amine] yielded an IC50 on hERG potassium channel of 7.9 µM. Compared with the last molecule, the IC50 is about 1.8-fold lower.
Broadly, the hepatocyte CLint is a measure of how fast metabolising enzymes remove a compound, apart from limits set by blood flow. As to `COc1cc(NC2CN(CCCF)C2)ccc1[C@@H]1c2ccc3[nH]ncc3c2C[C@@H](C)N1CC(C)(F)F` [Example 19, N-(4-((6S,8R)-7-(2,2-difluoropropyl)-8-methyl-6,7,8,9-tetrahydro-3H-pyrazolo[4,3-f]isoquinolin-6-yl)-3-methoxyphenyl)-1-(3-fluoropropyl)azetidin-3-amine], the hepatocyte CLint at 1 µM in series [1] stood at 5 µL/min/1e6 cells. The same molecule had a half-inhibitory concentration (IC50) on hERG potassium channel of 5.4 µM.
Taken in the same sequence, the figures for `COCC(F)(F)CN1[C@H](c2ccc(NC3CN(CCCF)C3)cc2OC)c2ccc3[nH]ncc3c2C[C@H]1C` [Example 1, N-(4-((6S,8R)-7-(2,2-difluoro-3-methoxypropyl)-8-methyl-6,7,8,9-tetrahydro-3H-pyrazolo[4,3-f]isoquinolin-6-yl)-3-methoxyphenyl)-1-(3-fluoropropyl)azetidin-3-amine] were 11 µL/min/1e6 cells and 10 µM.
As usually defined, the Papp is a coefficient for how fast a substance crosses the barrier. Low readings indicate slow passage, high ones fast passage. On hERG potassium channel, `C[C@@H]1Cc2c(ccc3[nH]ncc23)[C@@H](c2ccc(NC3CN(CCCF)C3)cn2)N1CC(F)(F)CO` [Example 16, 2,2-difluoro-3-((6S,8R)-6-(5-((1-(3-fluoropropyl)azetidin-3-yl)amino)pyridin-2-yl)-8-methyl-3,6,8,9-tetrahydro-7H-pyrazolo[4,3-f]isoquinolin-7-yl)propan-1-ol] returned an IC50 of more than 40 µM. This molecule returned a Papp at 2 h in series [2] of 1.7 ×10⁻⁶ cm/s.
In series [1], `COc1cc(NC2CN(CCCF)C2)ccc1[C@@H]1c2ccc3[nH]ncc3c2C[C@@H](C)N1CC(F)F` [Example 21, N-(4-((6S,8R)-7-(2,2-difluoroethyl)-8-methyl-6,7,8,9-tetrahydro-3H-pyrazolo[4,3-f]isoquinolin-6-yl)-3-methoxyphenyl)-1-(3-fluoropropyl)azetidin-3-amine] returned a hepatocyte CLint at 1 µM of 6 µL/min/1e6 cells. For the same molecule, the IC50 at hERG potassium channel is 5.3 µM. Also, in series [2], the Papp at 2 h is 14.1 ×10⁻⁶ cm/s.
Molecule `C[C@@H]1Cc2c(ccc3[nH]ncc23)[C@@H](c2ccc(NC3CN(CCCF)C3)cn2)N1CC1(F)CC1` [Example 3, 6-((6S,8R)-7-((1-fluorocyclopropyl)methyl)-8-methyl-6,7,8,9-tetrahydro-3H-pyrazolo[4,3-f]isoquinolin-6-yl)-N-(1-(3-fluoropropyl)azetidin-3-yl)pyridin-3-amine] registered a hepatocyte CLint at 1 µM in series [1] of 5 µL/min/1e6 cells. The molecule also came in with an IC50 at hERG potassium channel of more than 36 µM.
As for `COc1cc(NC2CN(CCCF)C2)ccc1[C@@H]1c2ccc3[nH]ncc3c2C[C@@H](C)N1CC1(F)CC1` [Example 6, N-(4-((6S,8R)-7-((1-fluorocyclopropyl)methyl)-8-methyl-6,7,8,9-tetrahydro-3H-pyrazolo[4,3-f]isoquinolin-6-yl)-3-methoxyphenyl)-1-(3-fluoropropyl)azetidin-3-amine], the hepatocyte CLint at 1 µM in series [1] was found to be 2 µL/min/1e6 cells. Moreover, on hERG potassium channel, the IC50 was 9.1 µM. The molecule also gave a Papp at 2 h in series [2] of 1.8 ×10⁻⁶ cm/s.
In series [1], `COCC(F)(F)CN1[C@H](c2ccc(NC3CN(CCCF)C3)cn2)c2ccc3[nH]ncc3c2C[C@H]1C` [Example 2, 6-((6S,8R)-7-(2,2-difluoro-3-methoxypropyl)-8-methyl-6,7,8,9-tetrahydro-3H-pyrazolo[4,3-f]isoquinolin-6-yl)-N-(1-(3-fluoropropyl)azetidin-3-yl)pyridin-3-amine] had an intrinsic clearance (hepatocyte CLint) at 1 µM of 6 µL/min/1e6 cells. For the same molecule, the IC50 at hERG potassium channel was more than 40 µM.
As for `COc1cc(NC2CN(CCCF)C2)ccc1[C@@H]1c2ccc3[nH]ncc3c2C[C@@H](C)N1CC(F)(F)F` [Example 28, 1-(3-fluoropropyl)-N-(3-methoxy-4-((6S,8R)-8-methyl-7-(2,2,2-trifluoroethyl)-6,7,8,9-tetrahydro-3H-pyrazolo[4,3-f]isoquinolin-6-yl)phenyl)azetidin-3-amine], the hepatocyte CLint at 1 µM in series [1] was determined as 5 µL/min/1e6 cells. Further, the IC50 at hERG potassium channel amounted to 7.8 µM. This molecule also returned a Papp at 2 h in series [2] of 24 ×10⁻⁶ cm/s.
As to `C[C@@H]1Cc2c(ccc3[nH]ncc23)[C@@H](c2ncc(NC3CN(CCCF)C3)cc2F)N1CC1(F)CC1` [Example 18, 5-fluoro-6-((6S,8R)-7-((1-fluorocyclopropyl)methyl)-8-methyl-6,7,8,9-tetrahydro-3H-pyrazolo[4,3-f]isoquinolin-6-yl)-N-(1-(3-fluoropropyl)azetidin-3-yl)pyridin-3-amine], the hepatocyte CLint at 1 µM in series [1] is 3 µL/min/1e6 cells. At hERG potassium channel, this molecule showed an IC50 of more than 38 µM.
In turn, `C[C@@H]1Cc2c(ccc3[nH]ncc23)[C@@H](c2ccc(NC3CN(CCCF)C3)cc2)N1CC(F)F` [Example 48, N-(4-((6R,8R)-7-(2,2-difluoroethyl)-8-methyl-6,7,8,9-tetrahydro-3H-pyrazolo[4,3-f]isoquinolin-6-yl)phenyl)-1-(3-fluoropropyl)azetidin-3-amine] showed a hepatocyte CLint at 1 µM in series [1] of 4 µL/min/1e6 cells.
The molecule `C[C@@H]1Cc2c(ccc3[nH]ncc23)[C@@H](c2ncc(NC3CN(CCCF)C3)cc2F)N1CC(F)(F)F` [Example 30, 5-fluoro-N-(1-(3-fluoropropyl)azetidin-3-yl)-6-((6S,8R)-8-methyl-7-(2,2,2-trifluoroethyl)-6,7,8,9-tetrahydro-3H-pyrazolo[4,3-f]isoquinolin-6-yl)pyridin-3-amine] showed an IC50 at hERG potassium channel of more than 33 µM.
Consider `COc1cc(NC2CN(CCCF)C2)ccc1[C@@H]1c2ccc3[nH]ncc3c2C[C@@H](C)N1CC(C)(C)F` [Example 64, N-(4-((6S,8R)-7-(2-fluoro-2-methylpropyl)-8-methyl-6,7,8,9-tetrahydro-3H-pyrazolo[4,3-f]isoquinolin-6-yl)-3-methoxyphenyl)-1-(3-fluoropropyl)azetidin-3-amine], for which the IC50 at hERG potassium channel amounted to 13 µM.
Take `C[C@@H]1Cc2c(ccc3[nH]ncc23)[C@@H](c2ccc(NC3CN(CCCF)C3)cn2)N1CC(F)F` [Example 25, 6-((6S,8R)-7-(2,2-difluoroethyl)-8-methyl-6,7,8,9-tetrahydro-3H-pyrazolo[4,3-f]isoquinolin-6-yl)-N-(1-(3-fluoropropyl)azetidin-3-yl)pyridin-3-amine]: the hepatocyte CLint at 1 µM in series [1] came to 5 µL/min/1e6 cells. This molecule gave an IC50 at hERG potassium channel of 28 µM. In series [2], the apparent permeability coefficient (Papp) at 2 h turned out to be 5.9 ×10⁻⁶ cm/s.
